These results are taken from patent publication US11787847B2, “Method of identifying malodor modulating compounds” (FIRMENICH SA, priority 2017, dated 2023).

Common to all, as to test: cell-based dose-response, cAMP increase by HTRF, HEK293T cells (endogenous RTP1 activated) co-transfected with human Golf, Lucy-FLAG-Rho tagged receptor
In general terms: In TR-FRET formats the signal depends on donor and acceptor labels being close together.

One test addresses T1, mouse receptor Olfr1093 (Mus musculus, UniProt B2RR12).
T1 construct: cAMP HTRF
T1 sequence (B2RR12 1-322): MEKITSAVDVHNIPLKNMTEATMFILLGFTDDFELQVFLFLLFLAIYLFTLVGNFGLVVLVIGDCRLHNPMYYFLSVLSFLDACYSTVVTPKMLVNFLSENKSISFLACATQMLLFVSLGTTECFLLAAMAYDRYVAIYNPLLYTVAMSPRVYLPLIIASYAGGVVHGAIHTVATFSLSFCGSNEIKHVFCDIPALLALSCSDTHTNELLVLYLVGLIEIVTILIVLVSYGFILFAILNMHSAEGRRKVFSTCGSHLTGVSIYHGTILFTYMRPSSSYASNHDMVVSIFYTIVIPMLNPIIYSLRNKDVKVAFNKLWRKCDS
The method, then: (§1) Functional dose-response experiments were performed to evaluate the level of DMTS activity of the modified cell line expressing individual putative DMTS receptors. Using a cell-based assay, mouse receptor Olfr1193, Olfr1093, Olfr1097, Olrf166, Olfr169, Olfr738 and Olfr742, and human receptor OR4S2 and OR52N5 were tested in an HEK293T cell line wherein the endogenous RTP1 gene has been activated and the odorant receptor chaperone protein was expressed (described in WO2016/201153). The mouse receptor genes were tagged with a Lucy-FLAG®-Rho tag combination and the human receptors were tagged with a Rho-FLAG® tag combination resulting in a tag:receptor fusion protein for the cell based assay. Receptor genes were co-transfected with the canonical olfactory human G-protein alpha subunit Golf gene and were exposed to increasing concentrations of the malodor odorant. Co-expression of the human Golf activates the Gs transduction pathway that leads to an internal cAMP increase upon binding to the appropriate ligand. Odorant-induced activity was detected by measuring the cAMP increase in the cytosol using an Homogeneous Time Resolved Fluorescence (HTRF) based kit (CisBio, cAMP dynamic 2 kit, cat. 62AM4PEJ). […] The activity levels are reported by the potency of the DMTS induced-response for each receptor as a measure of the EC50 value (the effective concentration at which the receptor responds at its half-maximal activation efficacy level for a given compound).
(§2) Functional dose-response experiments were performed to confirm the DMTS activity on the DMTS receptors identified in Example 2 and to further characterize their response to DMDS. Using the same cell-based assay described in Example 2, mouse receptors Olfr1193, Olfr1093, Olfr1097, Olfr166, Olfr169, Olfr738, Olfr742 and of human odorant receptor OR4S2 were tested with increasing concentration of DMTS, DMDS or butyric acid (control). […] A weak response for OR4S2 and Olfr169 to butyric acid was visible but was too weak to consider butyric acid as a representative ligand for these receptors. The activity levels are reported by the potency of DMTS or DMDS induced-response for each receptor as a measure of the EC50 value, EC50DMTS and EC50DMDS respectively. […] Competitive antagonists at the malodor binding site of these receptors have the potential to reduce the unpleasant perception of both DMTS and DMDS.

In another test the target is T2, mouse receptor Olfr1193 (Mus musculus, UniProt A2AV13).
T2 construct: cAMP HTRF
T2 sequence (A2AV13 1-318): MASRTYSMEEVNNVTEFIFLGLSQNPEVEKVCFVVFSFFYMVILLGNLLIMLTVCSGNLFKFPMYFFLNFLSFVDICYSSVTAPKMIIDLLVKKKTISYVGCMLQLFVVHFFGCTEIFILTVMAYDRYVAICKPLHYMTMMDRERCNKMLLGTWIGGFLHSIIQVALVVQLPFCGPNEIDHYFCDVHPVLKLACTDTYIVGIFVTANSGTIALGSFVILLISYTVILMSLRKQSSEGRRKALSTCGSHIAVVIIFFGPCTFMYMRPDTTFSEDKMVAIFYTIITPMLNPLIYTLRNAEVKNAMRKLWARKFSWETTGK
On the procedure:
as §1, §2

Another test concerns the target T3, mouse receptor Olfr1097 (Mus musculus, UniProt Q8VGA2).
T3 construct: cAMP HTRF
T3 sequence (Q8VGA2 1-315): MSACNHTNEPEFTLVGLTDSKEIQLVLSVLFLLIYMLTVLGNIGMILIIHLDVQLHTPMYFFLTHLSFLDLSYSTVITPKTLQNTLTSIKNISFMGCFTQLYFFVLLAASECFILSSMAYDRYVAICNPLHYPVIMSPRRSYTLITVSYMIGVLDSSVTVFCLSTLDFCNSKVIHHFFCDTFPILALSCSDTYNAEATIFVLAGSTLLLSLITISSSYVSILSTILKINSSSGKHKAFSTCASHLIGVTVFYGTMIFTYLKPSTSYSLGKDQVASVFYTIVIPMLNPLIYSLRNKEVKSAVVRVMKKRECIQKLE
The method, then: as §1, §2

The target of the next test is T4, mouse receptor Olfr742 (Mus musculus, UniProt A2RTP5).
T4 construct: cAMP HTRF
T4 sequence (A2RTP5 1-311): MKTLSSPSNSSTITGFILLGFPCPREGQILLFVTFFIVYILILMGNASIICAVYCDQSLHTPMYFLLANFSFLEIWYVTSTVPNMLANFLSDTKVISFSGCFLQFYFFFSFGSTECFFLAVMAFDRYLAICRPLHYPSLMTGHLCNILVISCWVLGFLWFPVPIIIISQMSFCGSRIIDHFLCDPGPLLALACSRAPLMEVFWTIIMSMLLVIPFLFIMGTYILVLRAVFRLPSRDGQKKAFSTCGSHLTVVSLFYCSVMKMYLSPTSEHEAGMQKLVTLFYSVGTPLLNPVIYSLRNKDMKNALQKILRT
On the procedure: as §1, §2

In the next test the target is T5, mouse receptor Olfr169 (Mus musculus, UniProt Q7TS53).
T5 construct: cAMP HTRF
T5 sequence (Q7TS53 1-313): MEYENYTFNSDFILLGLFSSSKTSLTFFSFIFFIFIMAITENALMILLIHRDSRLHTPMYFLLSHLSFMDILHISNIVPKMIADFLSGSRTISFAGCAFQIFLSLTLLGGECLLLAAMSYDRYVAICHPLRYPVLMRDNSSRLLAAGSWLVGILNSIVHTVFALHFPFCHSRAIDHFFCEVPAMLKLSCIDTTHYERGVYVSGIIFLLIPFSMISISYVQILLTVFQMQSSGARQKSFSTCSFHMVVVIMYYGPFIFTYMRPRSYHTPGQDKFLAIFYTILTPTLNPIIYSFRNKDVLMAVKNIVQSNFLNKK
The method, then: as §1, §2

In the case of `CSSSC` [DMTS, dimethyl trisulfide], the EC50 (as a rule, the concentration at which the effect is half-maximal) stood at 46 µM at mouse receptor Olfr1093 (FIG. 2, Example 2, SEQ ID NO: 4); 62 µM at mouse receptor Olfr1093 (FIG. 5, Example 5, SEQ ID NO: 4); 55 µM at mouse receptor Olfr1193 (FIG. 2, Example 2, SEQ ID NO: 2); 16 µM at mouse receptor Olfr1193 (FIG. 5, Example 5, SEQ ID NO: 2); 17 µM at mouse receptor Olfr1097 (FIG. 2, Example 2, SEQ ID NO: 6); 18 µM at mouse receptor Olfr1097 (FIG. 5, Example 5, SEQ ID NO: 6). The EC50 at mouse receptor Olfr742 (FIG. 2, Example 2, SEQ ID NO: 14) is 7 µM; on mouse receptor Olfr742 (FIG. 5, Example 5, SEQ ID NO: 14), 16 µM; on mouse receptor Olfr169 (FIG. 2, Example 2, SEQ ID NO: 10), 32 µM; on mouse receptor Olfr169 (FIG. 5, Example 5, SEQ ID NO: 10) it was 23 µM.
